Assay results taken from PubChem BioAssay (NCI).
Values joined by “and” are separate entries in the source; they are usually repeats but may differ in a detail not shown here. Identical values can stand only once.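 48-hour exposure; five concentrations; linearly interpolated endpoints. GI50 is the concentration that inhibits growth by half. TGI denotes the concentration required for complete inhibition of growth.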

Legend:
Assay in all cases: NCI-60 cell line screen, 48 h
[1] = test system: A498 renal
[2] = test system: NCI-H460 lung
[3] = test system: MOLT-4 leukemia
[4] = test system: HS 578T breast
[5] = test system: HCT-15 colon
[6] = test system: SR leukemia
[7] = test system: 786-0 renal
[8] = test system: MDA-MB-231 breast
[9] = test system: MDA-MB-435
[10] = test system: NCI-H23 lung

SMILES: CN(CC(=O)N(Cc1ccc(C2CCCCC2)cc1)c1ccc(C(=O)O)cc1)S(=O)(=O)c1c(F)c(F)c(F)c(F)c1F
- GI50 [1]: 2150 nM
- TGI [1]: 7.65 µM
- GI50 [2]: 3330 nM
- TGI [2]: 10.4 µM
- GI50 [3]: 2420 nM
- TGI [3]: 6.14 µM
- GI50 [4]: 2470 nM
- TGI [4]: 6.04 µM
- GI50 [5]: 1740 nM
- TGI [5]: 3.36 µM
- GI50 [6]: 2640 nM
- TGI [6]: 7.89 µM
- GI50 [7]: 2280 nM
- TGI [7]: 5.22 µM
- GI50 [8]: 1900 nM
- TGI [8]: 3.51 µM
- GI50 [9]: 1750 nM
- TGI [9]: 3.19 µM
- GI50 [10]: 1920 nM
- TGI [10]: 3.81 µM

SMILES: C=CC(=O)N1CC2(CC(n3nc(-c4ccc5c(cnn5C)c4)c(-c4c(Cl)c(C)cc5[nH]ncc45)c3C)C2)C1
- GI50 [1]: 3990 nM
- TGI [1]: 13.3 µM
- GI50 [2]: 3120 nM
- TGI [2]: 10.3 µM
- GI50 [3]: 1740 nM
- TGI [3]: 9 µM
- GI50 [4]: 5560 nM
- TGI [4]: 62.9 µM
- GI50 [5]: 1540 nM
- TGI [5]: 3.05 µM
- GI50 [6]: 1610 nM
- TGI [6]: 6.12 µM
- GI50 [7]: 3710 nM
- TGI [7]: 15.4 µM
- GI50 [8]: 2540 nM
- TGI [8]: 6.62 µM
- GI50 [9]: 2720 nM
- TGI [9]: 7.65 µM
- TGI [10]: 1.72 µM

SMILES: Cn1ncc(Cl)c1-c1cc(C(=O)N[C@H](CN)Cc2ccc(F)c(F)c2)oc1Cl
- GI50 [1]: 30.3 nM and 40.4 nM
- TGI [1]: 0.3 µM and 0.472 µM
- GI50 [2]: 152 nM and 163 nM
- TGI [2]: 13 µM and > 10 µM
- GI50 [3]: 93.1 nM and 100 nM
- TGI [3]: 2.25 µM and > 6.73 µM
- GI50 [4]: 90.5 nM and 126 nM
- TGI [4]: 2.08 µM and 2.86 µM
- GI50 [5]: 1160 nM and 662 nM
- TGI [5]: 13.8 µM and > 10 µM
- TGI [6]: 2.74 µM and 4.36 µM
- GI50 [7]: 37.1 nM and 29.5 nM
- TGI [7]: 3.79 µM and 2.1 µM
- GI50 [8]: 2590 nM and 1720 nM
- TGI [8]: 9.87 µM and 5.76 µM
- GI50 [9]: 1230 nM and 889 nM
- TGI [9]: 10.4 µM and > 6.54 µM
- GI50 [10]: 5170 nM and 2440 nM
- TGI [10]: 19.7 µM and > 10 µM

SMILES: Cc1cc([N+](=O)[O-])c2ccccc2[n+]1[O-]
- GI50 [1]: 185 nM and 144 nM
- TGI [1]: 0.464 µM and 0.416 µM
- GI50 [2]: 30.7 nM and 28.2 nM
- TGI [2]: 0.129 µM and 0.109 µM
- GI50 [3]: 869 nM and 1190 nM
- TGI [3]: 7.8 µM and 5.95 µM
- GI50 [4]: 1180 nM and 989 nM
- TGI [4]: 5.74 µM and 4.8 µM
- GI50 [5]: 185 nM and 213 nM
- TGI [5]: 0.797 µM and 1.03 µM
- GI50 [6]: 27.9 nM and 26.4 nM
- GI50 [7]: 158 nM and 258 nM
- TGI [7]: 0.483 µM and 0.75 µM
- GI50 [8]: 218 nM and 202 nM
- TGI [8]: 0.755 µM and 0.72 µM
- GI50 [9]: 336 nM and 286 nM
- TGI [9]: 1.58 µM and 1.2 µM
- GI50 [10]: 504 nM and 590 nM
- TGI [10]: 2.51 µM and 3.75 µM

SMILES: COc1cccc(/C=C2\COc3ccc(-c4ccccc4)cc3C2=O)c1
- GI50 [1]: 1890 nM
- TGI [1]: 3.52 µM
- GI50 [2]: 1740 nM
- TGI [2]: 3.78 µM
- GI50 [3]: 3090 nM
- TGI [3]: > 100 µM
- GI50 [4]: 2760 nM
- TGI [4]: 6.61 µM
- GI50 [5]: 1780 nM
- TGI [5]: 4.72 µM
- GI50 [6]: 1980 nM
- TGI [6]: > 100 µM
- GI50 [7]: 2630 nM
- TGI [7]: 6.45 µM
- GI50 [8]: 2940 nM
- TGI [8]: 7.61 µM
- GI50 [9]: 3210 nM
- TGI [9]: > 100 µM
- GI50 [10]: 3140 nM
- TGI [10]: 10 µM

SMILES: COc1ccc(/C(C#N)=C2C=C/C(=N/O)c3ccccc3\2)cc1
- GI50 [1]: 2210 nM
- TGI [1]: 6.75 µM
- GI50 [2]: 310 nM
- TGI [2]: 1.23 µM
- GI50 [3]: 357 nM
- TGI [3]: 12.6 µM
- GI50 [4]: 258 nM
- TGI [4]: 6.33 µM
- GI50 [5]: 168 nM
- TGI [5]: 4.52 µM
- GI50 [6]: 133 nM
- TGI [6]: 5.06 µM
- GI50 [7]: 457 nM
- TGI [7]: 15 µM
- GI50 [8]: 270 nM
- TGI [8]: 0.796 µM
- GI50 [9]: 38.8 nM
- TGI [9]: 0.179 µM
- GI50 [10]: 403 nM
- TGI [10]: 14.4 µM

SMILES: CCn1c(-c2nonc2N)nc2cncc(C(=O)N3CC[C@H](N)C3)c21
- GI50 [1]: 1200 nM
- TGI [1]: > 25 µM
- GI50 [2]: 17700 nM
- TGI [2]: > 25 µM
- GI50 [3]: > 25000 nM
- TGI [3]: > 25 µM
- GI50 [4]: 559 nM
- TGI [4]: > 25 µM
- GI50 [5]: 8290 nM
- TGI [5]: > 25 µM
- GI50 [6]: 2010 nM
- TGI [6]: > 25 µM
- GI50 [7]: > 20400 nM
- TGI [7]: > 25 µM
- GI50 [8]: > 25000 nM
- TGI [8]: > 25 µM
- GI50 [9]: > 25000 nM
- TGI [9]: > 25 µM
- GI50 [10]: > 25000 nM
- TGI [10]: > 25 µM

SMILES: Cn1cc(C2=C(c3cn(CCCCCSC(=N)N)c4ccccc34)C(=O)NC2=O)c2ccccc21
- GI50 [1]: 3650 nM
- TGI [1]: 6.97 µM
- GI50 [2]: 3730 nM
- TGI [2]: 7.75 µM
- GI50 [3]: 2060 nM
- TGI [3]: 6.25 µM
- GI50 [4]: 2240 nM
- TGI [4]: 11.1 µM
- GI50 [5]: 3800 nM
- TGI [5]: 8.03 µM
- GI50 [6]: 790 nM
- TGI [6]: 2.24 µM
- GI50 [7]: 3160 nM
- TGI [7]: 7 µM
- GI50 [8]: 3910 nM
- TGI [8]: 7.49 µM
- GI50 [9]: 1060 nM
- TGI [9]: 4.07 µM
- GI50 [10]: 3500 nM
- TGI [10]: 7.56 µM

SMILES: CSc1ccc2c(c1)C(N1CCN(C)CC1)Cc1ccccc1S2 (configuration not stated)
- GI50 [1]: 1370 nM
- TGI [1]: 25.8 µM and 2.8 µM
- GI50 [2]: 1740 nM
- TGI [2]: 7.12 µM and 3.45 µM
- GI50 [3]: 1890 nM
- TGI [3]: 8.67 µM and 3.87 µM
- GI50 [4]: 2510 nM
- TGI [4]: 15.9 µM and 10.9 µM
- GI50 [5]: 2830 nM
- TGI [5]: 16.4 µM and 7.41 µM
- GI50 [6]: 1660 nM
- TGI [6]: 5.21 µM and 3.83 µM
- GI50 [7]: 1770 nM
- TGI [7]: 19.8 µM and 3.36 µM
- GI50 [8]: 1850 nM
- TGI [8]: 13.7 µM and 3.65 µM
- GI50 [9]: 1780 nM
- TGI [9]: 6.47 µM and 3.46 µM
- GI50 [10]: 3220 nM
- TGI [10]: 28.8 µM and 11.8 µM

SMILES: COc1cc2nc3cc([N+](=O)[O-])ccc3c(NCCNCC(C)(C)O)c2cc1OC
- GI50 [1]: 1830 nM
- TGI [1]: 3.63 µM
- GI50 [2]: 377 nM
- TGI [2]: 1.47 µM
- GI50 [3]: 354 nM
- TGI [3]: 10.7 µM
- GI50 [4]: 1750 nM
- TGI [4]: 6.15 µM
- GI50 [5]: 3400 nM
- TGI [5]: 12.8 µM
- GI50 [6]: 238 nM
- TGI [6]: 3.04 µM
- GI50 [7]: 1510 nM
- TGI [7]: 4.04 µM
- GI50 [8]: 451 nM
- TGI [8]: 2.41 µM
- GI50 [9]: 600 nM
- TGI [9]: 1.93 µM
- GI50 [10]: 629 nM
- TGI [10]: 3.43 µM

SMILES: COC(=O)[C@H]1CCCN1C(=O)[C@H]1CCCN1C(=O)[C@H](Cc1c[nH]c2ccccc12)NC(=S)Nc1cc(C(F)(F)F)cc(C(F)(F)F)c1
- GI50 [1]: 6540 nM
- TGI [1]: > 100 µM
- GI50 [2]: 3460 nM
- TGI [2]: > 100 µM
- GI50 [3]: 4880 nM
- TGI [3]: > 100 µM
- GI50 [4]: 6100 nM
- TGI [4]: > 100 µM
- GI50 [5]: 6260 nM
- TGI [5]: > 100 µM
- GI50 [6]: 3670 nM
- TGI [6]: > 100 µM
- GI50 [7]: 13800 nM
- TGI [7]: 83 µM
- GI50 [8]: 2180 nM
- TGI [8]: 5.25 µM
- GI50 [9]: 5600 nM
- TGI [9]: > 100 µM
- GI50 [10]: 7220 nM
- TGI [10]: > 100 µM

SMILES: CCOC(=O)COc1ccc2c(C)cc(=O)oc2c1
- TGI [1]: > 100 µM
- TGI [2]: > 100 µM
- TGI [3]: > 100 µM
- TGI [4]: > 100 µM
- TGI [5]: > 100 µM
- TGI [6]: > 100 µM
- TGI [7]: > 100 µM
- TGI [8]: > 100 µM
- TGI [9]: > 100 µM
- TGI [10]: > 100 µM

SMILES: Nc1ncnc2c1ncn2C1OC(CO)C(O)C1N (configuration not stated)
- TGI [1]: > 100 µM
- TGI [2]: > 100 µM
- TGI [3]: > 100 µM
- TGI [4]: > 100 µM
- TGI [5]: > 100 µM
- TGI [6]: > 100 µM
- TGI [7]: > 100 µM
- TGI [8]: > 100 µM
- TGI [9]: > 100 µM
- TGI [10]: > 100 µM
